The source of these data is PMC12648010 (Acta Pharmaceutica Sinica. B, 2025).

Structures are written as SMILES.

The test addresses T1, SLC38A9 (Homo sapiens, UniProt Q8NBW4).
T1 sequence (Q8NBW4 1-561): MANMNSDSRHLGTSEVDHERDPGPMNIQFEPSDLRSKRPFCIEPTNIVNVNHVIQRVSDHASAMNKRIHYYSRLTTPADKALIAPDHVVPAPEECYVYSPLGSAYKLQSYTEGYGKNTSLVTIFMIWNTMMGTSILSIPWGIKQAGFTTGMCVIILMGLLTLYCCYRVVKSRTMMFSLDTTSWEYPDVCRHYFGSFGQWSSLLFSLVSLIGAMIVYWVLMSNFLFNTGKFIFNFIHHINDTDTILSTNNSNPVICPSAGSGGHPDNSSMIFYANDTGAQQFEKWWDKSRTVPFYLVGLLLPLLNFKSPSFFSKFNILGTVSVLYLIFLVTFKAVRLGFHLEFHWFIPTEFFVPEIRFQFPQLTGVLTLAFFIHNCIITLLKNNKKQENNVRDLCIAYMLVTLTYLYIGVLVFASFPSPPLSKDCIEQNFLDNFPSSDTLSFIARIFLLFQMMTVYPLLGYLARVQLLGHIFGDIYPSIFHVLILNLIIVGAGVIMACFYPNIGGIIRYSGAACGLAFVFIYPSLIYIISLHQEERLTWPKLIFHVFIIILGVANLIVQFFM
As to the kind of experiment: SPR. It is filed as binding.

Consider `C=CC(=O)Nc1cccc2[nH]nc(-c3nc4ccc(N5CCN(C)CC5)cc4[nH]3)c12` [LLAD, N-(3-(6-(4-Methylpiperazin-1-yl) -1H-benzo[d]imidazole-2-yl)-1H-indazol-4-yl) acrylamide], for which the Kd is 1290 nM.
